Measurements from patent publication US20230131630A1, “METHOD OF SCREENING FOR A SUBSTANCE THAT ACTS ON A CELL MASS” (LSI MEDIENCE CORPORATION, priority 2017, published 2023).

Experiments:
[1] = tested on: PDX tumor of pancreatic cancer (1); experiment: In vivo anticancer drug sensitivity test, PDX tumor grafted subcutaneously in immunodeficient mice; conditions: super SCID mouse, subcutaneous graft; gemcitabine 60 mg/kg/time twice weekly for 4 weeks; FIG. 8 left
Experimental: An in vivo anticancer drug sensitivity test was performed by the following procedures with reference to a known method. A PDX tumor of pancreatic cancer (1), which was subcutaneously grown in an immunodeficient mouse [super SCID mouse (strain name: C3H/HeJ/NOs-scid; LPS-nonresponder)], was aseptically extracted in a safety cabinet, and every necrotic area of the tumor was removed with surgical scissors. Subsequently, graft tumor fragments each having a size of about 2 to 3 mm square were prepared and subcutaneously grafted in at least 12 immunodeficient mice. When the average tumor volume reached about 200 mm^3, the mice were grouped by tumor volume and assigned to a control group and a gemcitabine administration group (N = 6: 6 mice each under the same conditions). Gemcitabine (60 mg/kg/time) was administered at a dosing frequency of twice weekly for 4 weeks. The tumor diameter was measured at a frequency of twice weekly and the tumor volume was calculated, thereby creating a tumor proliferation curve.

[2] = tested on: cell mass of primary cancer cells from PDX tumor of pancreatic cancer (1); experiment: In vitro anticancer drug sensitivity test, ATP assay (CellTiter-Glo 3D) on three-dimensionally cultured cell mass; assay type: cell-based, human; conditions: fresh tumor; gemcitabine 0.001-10 µmol/L from Day 7, ATP assay on Day 14; FIG. 8 right
Experimental: A half of medium exchange was performed with a culture medium supplemented with gemcitabine on Day 7. A half of medium exchange was performed with a culture medium supplemented with gemcitabine which was adjusted to maintain the final concentration on Days 10 and 12. On Day 14, ATP assay was performed, and the proportion based on the result of each gemcitabine concentration group was calculated when the result at a gemcitabine concentration of 0 µmol / L was defined as a cell viability of 100%, thereby creating a cell viability curve. An in vitro anticancer drug sensitivity test was performed by the following procedures. After dispersion treatment, the necessary amount of cells counted were collected in a 15-mL tube, and the supernatant was removed by centrifugation at 300 × g for 5 min. Thereafter, a cell suspension was prepared so that the cell count was 5 × 10^4 cells/mL using a medium prepared by adding Corning Matrigel GFR (Corning Incorporated) to StemPro hESC SFM (Thermo Fisher Scientific K.K.) to yield a final concentration of 2% v/v. […] The seeded cell count was 1 × 10^4 cells/200 µL/well, and the day of seeding was determined to be Day 0. […] The proportion of the result of each gemcitabine concentration group was calculated when the result at a gemcitabine concentration of 0 µmol / L was defined as a cell viability of 100%, thereby creating a cell viability curve.

[3] = tested on: cell mass originating from the once-frozen PDX tumor of pancreatic cancer (1); experiment: In vitro gemcitabine sensitivity test, ATP assay on cell mass from once-frozen tumor tissue; assay type: cell-based, human; conditions: gemcitabine 0.001-10 µmol/L from Day 3, ATP assay on Day 7, FIG. 9
Experimental: The PDX tumor of pancreatic cancer (1) (procured from National Institutes of Biomedical Innovation, Health and Nutrition) was extracted in accordance with Example 1. The tumor was immersed in CELLBANKER 1 (Takara Bio Inc.) and frozen by a Program Deep Freezer (Nepa Gene Co., Ltd.), thereby preparing a frozen tumor. The frozen tumor was thawed in a warm bath at 37° C. and washed with HBSS (Thermo Fisher Scientific K.K.), and then, primary cancer cells were prepared in accordance with Example 1. After dispersion treatment, the necessary amount of cells counted were collected in a 15-mL tube, and the supernatant was removed by centrifugation at 300 × g for 5 min. […] The seeded cell count was 1 × 10^4 cells/200 µL/well, and the day of seeding was determined to be Day 0. […] The proportion of the result of each measurement day with respect to the result of Day 0 was calculated, and a proliferation curve was created. The proportion based on the result of each gemcitabine concentration group was calculated when the result at a gemcitabine concentration of 0 µmol / L was defined as a cell viability of 100%, thereby creating a cell viability curve.

[4] = tested on: reproduced cell mass originating from the PDX tumor of pancreatic cancer (1); experiment: In vitro gemcitabine sensitivity test, ATP assay on subcultured (reproduced) cell mass; assay type: cell-based, human; conditions: fresh or frozen tumor-derived, gemcitabine 0.001-10 µmol/L from Day 3, ATP assay on Day 7, FIGS. 10-1, 10-2
Experimental: A fresh tumor-derived cell mass and a frozen tumor-derived cell mass were obtained in accordance with Examples 1 and 10, respectively, using a PDX tumor of pancreatic cancer (1) (procured from National Institutes of Biomedical Innovation, Health and Nutrition). Each cell mass was collected in a 50-mL tube, and the supernatant was removed by centrifugation at 300 × g for 5 min. Thereafter, the cell mass was suspended in TrypLE (Thermo Fisher Scientific K.K.) and enzymatically treated in a warm bath at 37° C. The reaction was weakened by adding 10 times the amount of HBSS (Thermo Fisher Scientific K.K.) to the reaction solution. The undispersed residues were removed by passing the mixture through a 100-µm cell strainer. […]
The necessary amount of cells were collected in a 15-mL tube, and the supernatant was removed by centrifugation at 300 × g for 5 min. […] The seeded cell count was 1 × 10^4 cells/200 µL/well (fresh tumor-derived) or 4 × 10^3 cells/200 µL/well (frozen tumor-derived), and the day of seeding was determined to be Day 0. […] The ratio of the result of each measurement day with respect to the result of Day 0 was calculated, and a growth curve was created. The proportion based on the result of each gemcitabine concentration group was calculated when the result at a gemcitabine concentration of 0 µmol/L was defined as a cell viability of 100%, thereby creating a cell viability curve. […]

Nc1ccn([C@@H]2O[C@H](CO)[C@@H](O)C2(F)F)c(=O)n1 [Gemcitabine, gemcitabine]
inhibited proliferation: proliferation of the PDX tumor (tumor volume, tumor proliferation curve) [1] | proliferation / cell viability (ATP assay) of the cell mass [2] | proliferation / cell viability (ATP assay) of the cell mass [3] | proliferation / cell viability (ATP assay) of the reproduced cell mass [4]
